pEC50: −log10 of the molar value.
Columns and labels:
PPAR-α = PPAR-α (Homo sapiens (Human), UniProt Q07869); experiment: Measurement of PPAR-α activity (GAL4 luciferase reporter assay in CV-1 cells); type: cell-based; conditions: 100(A/B), B = compound in WO/2011/058154 at 100 μM, test concentrations not stated for these examples, read-out: PPARα relative fold induction (%)
Procedure: The PPAR-α activity was measured according to the published article (THE JOURNAL OF BIOLOGICAL CHEMISTRY Vol. 270, No. 22, 12953-12956, 1995).
Plasmids used for the PPAR-α activity measurement were constructed as follows. A luciferase expression plasmid (UASx5-TK-Luc) used was obtained by introducing a sequence, in which five yeast GAL4-binding sequences are linked in tandem, upstream of a thymidine kinase promoter of pTAL-Luc (Takara Bio Inc., 6252-1). A PPAR-α receptor expression plasmid (hGR-GAL4-hPPARα) used was obtained by introducing a human GR N-terminal region (1-76 aa), a yeast GAL4 DNA-binding region (1-147 aa), and a PPARα ligand-binding region (167-468 aa) between a Not I site and a Sal I site of pExchange-1 Core Vector (Invitrogen Corporation, 211176).
A reporter assay was conducted by the following method using Cercopithecus aethiops kidney-derived CV-1 cells. The CV-1 cells were seeded in a 96-well plate (Thermo Fisher Scientific Inc., 4938) at 2×10^4 cells/well using a 10% FBS-containing DMEM (Nacalai Tesque, Inc., 0845874) medium. After culturing under conditions of 37° C. and 5% CO2 for 2 hours, the plasmids were transfected. Lipofectamine LTX (Invitrogen Corporation, 15338-100) was used for the transfection according to the attached manual. The plasmid solution was prepared by adding a mixture solution of the luciferase expression plasmid and the PPAR-α receptor expression plasmid to OPTI-MEM I (Invitrogen Corporation, 11058-021). After the transfection was conducted, the test compound was added, and cultured at 37° C. in the presence of 5% CO2 for 18 to 20 hours. After the culturing was completed, the luciferase activity was measured with Luminescensor JNR (ATTO) using Bright-Glo (Promega Corporation, E2620).
The fold induction of PPAR-α by the test compounds was calculated by the following method. For the compounds of Examples 1, 4, 5, 7, and 9, PPAR-α relative fold induction (%) was defined as 100 (A/B), where A represents the maximum value of PPAR-α activities with the test compound at 0.3 μM, 1 μM, 3 μM, 10 μM, 30 μM, and 100 μM, and B represents the PPAR-α activity with the compound in WO/2011/058154 at 100 μM. For the compounds of Examples 11, 15, 19, 22, 26, and 32, PPAR-α relative fold induction (%) was defined as 100 (A/B), where A represents the maximum value of PPAR-α activities with the test compound at 3 μM, 10 μM, 30 μM, and 100 μM, and B represents the PPAR-α activity with the compound in WO/2011/058154 at 100 μM.

[1] = target: human GYS1 (glycogen synthase) (Homo sapiens (Human), UniProt P13807); experiment: Measurement of glycogen synthase activity (coupled pyruvate kinase/lactate dehydrogenase assay, absorbance at 340 nm); type: biochemical; conditions: concentration inducing relative activity of 50% (100% = Ex. 1 of WO/2011/058154 at 10 μM); incubation at 37° C. for 20 minutes (Examples 11 to 75)
Chain of human GYS1 (glycogen synthase) (P13807 whole entry): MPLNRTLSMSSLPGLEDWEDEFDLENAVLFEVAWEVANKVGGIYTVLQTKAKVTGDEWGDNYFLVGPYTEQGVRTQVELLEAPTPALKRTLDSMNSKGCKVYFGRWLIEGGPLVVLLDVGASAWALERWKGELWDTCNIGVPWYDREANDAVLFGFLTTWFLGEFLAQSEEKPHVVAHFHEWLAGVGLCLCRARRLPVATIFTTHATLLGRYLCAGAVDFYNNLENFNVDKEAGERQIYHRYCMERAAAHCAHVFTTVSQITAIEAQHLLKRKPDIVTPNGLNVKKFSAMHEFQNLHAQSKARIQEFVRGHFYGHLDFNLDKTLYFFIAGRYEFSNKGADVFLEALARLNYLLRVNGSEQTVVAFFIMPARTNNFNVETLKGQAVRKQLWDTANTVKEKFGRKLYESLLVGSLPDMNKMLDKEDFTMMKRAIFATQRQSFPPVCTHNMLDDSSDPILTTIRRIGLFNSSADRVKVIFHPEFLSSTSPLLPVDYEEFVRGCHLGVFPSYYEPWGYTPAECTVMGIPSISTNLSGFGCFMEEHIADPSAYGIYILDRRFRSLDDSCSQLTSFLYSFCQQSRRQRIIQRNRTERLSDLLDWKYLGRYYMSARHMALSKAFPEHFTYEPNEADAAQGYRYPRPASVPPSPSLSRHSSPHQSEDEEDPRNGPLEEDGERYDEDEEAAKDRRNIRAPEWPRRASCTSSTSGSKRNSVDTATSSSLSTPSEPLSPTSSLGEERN
In short: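 GYS1 expressed in HEK293T cells, with the lysate pellet used as enzyme. Reaction with glucose-6-phosphate, glycogen, UDP-glucose, PEP and NADH, pH 7.3, incubated 30° C for 25 min or 37° C for 20 min, then A340 read. EC50 relative to a reference activator at 10 μM set as 100%.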

Chain of PPAR-α (Q07869 167-468): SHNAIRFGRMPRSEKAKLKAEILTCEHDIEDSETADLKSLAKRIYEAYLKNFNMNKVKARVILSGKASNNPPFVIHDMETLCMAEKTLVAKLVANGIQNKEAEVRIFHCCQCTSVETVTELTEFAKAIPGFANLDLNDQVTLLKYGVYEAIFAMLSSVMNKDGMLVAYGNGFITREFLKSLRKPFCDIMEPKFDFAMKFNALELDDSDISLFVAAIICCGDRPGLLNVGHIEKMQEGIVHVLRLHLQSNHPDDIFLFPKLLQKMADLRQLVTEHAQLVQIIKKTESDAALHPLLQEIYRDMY

Compound | Emax (PPAR-α) | pEC50 [1]
CC(O)COc1cc(-c2ccc(OCc3cccc(C(=O)N4CCC[C@H]4C(=O)O)c3)cc2)cc(F)c1F (stereo partly drawn) [compound of Ex. 50, 1-[3-({[3′,4′-difluoro-5′-(2-hydroxypropoxy)biphenyl-4-yl]oxy}methyl)benzoyl]-L-proline] | 15% | 6.39
N#Cc1coc2c(-c3ccc(OCc4cccc(C(=O)N5CCC[C@H]5C(=O)O)c4)cc3)cc(F)c(F)c12 [compound of Ex. 53] | 15% | 6.21
O=Cc1cc2c(F)c(F)cc(-c3ccc(OCc4cccc(C(=O)N5CCC[C@H]5C(=O)O)c4)cc3)c2s1 [compound of Ex. 65, 1-(3-{[4-(4,5-difluoro-2-formyl-1-benzothien-7-yl)phenoxy]methyl}benzoyl)-L-proline] | 11% | 6.52
O=C(O)[C@@H]1CCCN1C(=O)c1cccc(COc2ccc(-c3cc(F)c(F)c4cc(CO)oc34)cc2)c1 [compound of Ex. 70, 1-[3-({4-[4,5-difluoro-2-(hydroxymethyl)-1-benzofuran-7-yl]phenoxy}methyl)benzoyl]-L-proline] | 7.9% | 6.70
N#CCSc1cc(F)c(F)cc1-c1ccc(OCc2cccc(C(=O)N3CCC[C@H]3C(=O)O)c2)cc1 [compound of Ex. 71, 1-{3-[({2′-[(cyanomethyl)thio]-4′,5′-difluorobiphenyl-4-yl}oxy)methyl]benzoyl}-L-proline] | 8.6% | 7.42
N#CCCSc1cc(F)c(F)cc1-c1ccc(OCc2cccc(C(=O)N3CCC[C@H]3C(=O)O)c2)cc1 [compound of Ex. 72, 1-{3-[({2′-[(2-cyanoethyl)thio]-4′,5′-difluorobiphenyl-4-yl}oxy)methyl]benzoyl}-L-proline] | 15% | 6.72

More lines, in order of rising pEC50 [1], values ahead:

Emax (PPAR-α) | pEC50 [1] | Compound
10% | 6.10 | N#CCc1cc(F)c(F)cc1-c1ccc(OCc2cccc(C(=O)N3CCC[C@H]3C(=O)O)c2)cc1 [compound of Ex. 61, 1-[3-({[2′-(cyanomethyl)-4′,5′-difluorobiphenyl-4-yl]oxy}methyl)benzoyl]-L-proline]
8.6% | 6.89 | O=C(O)[C@@H]1CCCN1C(=O)c1cccc(COc2ccc(-c3cc(F)c(F)cc3SCCO)cc2)c1 [compound of Ex. 69, 1-{3-[({4′,5′-difluoro-2′-[(2-hydroxyethyl)thio]biphenyl-4-yl}oxy)methyl]benzoyl}-L-proline]
15% | 7.08 | CC(=O)CSc1cc(F)c(F)cc1-c1ccc(OCc2cccc(C(=O)N3CCC[C@H]3C(=O)O)c2)cc1 [compound of Ex. 51, 1-{3-[({4′,5′-difluoro-2′-[(2-oxopropyl)thio]biphenyl-4-yl}oxy)methyl]benzoyl}-L-proline]
18% | 7.13 | O=C(O)[C@@H]1CCCN1C(=O)c1cccc(COc2ccc(-c3cc(F)c(F)c4cc(CO)sc34)cc2)c1 [compound of Ex. 66, 1-[3-({4-[4,5-difluoro-2-(hydroxymethyl)-1-benzothien-7-yl]phenoxy}methyl)benzoyl]-L-proline]
18% | 7.21 | O=C(O)[C@@H]1CCCN1C(=O)c1cccc(COc2ccc(-c3cc(F)c(F)cc3/C=N/O)cc2)c1 [compound of Ex. 52, 1-{3-[({4′,5′-difluoro-2′-[(hydroxyimino)methyl]biphenyl-4-yl}oxy)methyl]benzoyl}-L-proline]
19% | 7.35 | O=C(O)[C@@H]1CCCN1C(=O)c1cccc(COc2ccc(-c3cc(F)c(F)c4cc(/C=N/O)oc34)cc2)c1 [compound of Ex. 58, 1-{3-[(4-{4,5-difluoro-2-[(hydroxyimino)methyl]-1-benzofuran-7-yl}phenoxy)methyl]benzoyl}-L-proline]
6.4% | 7.36 | O=C(O)[C@@H]1CCCN1C(=O)c1cccc(COc2ccc(-c3cc(F)c(F)c4c(CO)coc34)cc2)c1 [compound of Ex. 56, 1-[3-({4-[4,5-difluoro-3-(hydroxymethyl)-1-benzofuran-7-yl]phenoxy}methyl)benzoyl]-L-proline]

— patent US9290487B2, “Pharmaceutical composition for treating diabetes” (Ajinomoto Co., Inc., priority 2011, dated 2016)
